We go through one compound from ChEMBL document CHEMBL1128530, “Alpha- and beta-adrenoceptors: from the gene to the clinic. 1. Molecular biology and adrenoceptor subclassification” (J Med Chem, 1995).

Test [1] addresses T1, Alpha-2A adrenergic receptor (Sus scrofa, UniProt P18871).
T1 sequence (P18871 whole entry): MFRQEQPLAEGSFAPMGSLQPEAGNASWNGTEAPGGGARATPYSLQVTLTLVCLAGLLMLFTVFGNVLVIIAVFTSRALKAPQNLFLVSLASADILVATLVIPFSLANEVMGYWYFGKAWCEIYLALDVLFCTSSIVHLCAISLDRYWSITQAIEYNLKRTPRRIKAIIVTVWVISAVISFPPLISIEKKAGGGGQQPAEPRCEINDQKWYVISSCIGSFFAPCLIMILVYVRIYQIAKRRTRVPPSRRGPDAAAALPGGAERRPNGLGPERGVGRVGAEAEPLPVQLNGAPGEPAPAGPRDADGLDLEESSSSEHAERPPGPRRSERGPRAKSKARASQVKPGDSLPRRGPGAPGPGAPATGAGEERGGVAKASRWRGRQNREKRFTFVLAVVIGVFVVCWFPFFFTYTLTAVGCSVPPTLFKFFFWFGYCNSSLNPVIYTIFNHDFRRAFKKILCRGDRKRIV
As to the kind of experiment: Compound was evaluated for inhibition of binding of [3H]MK-91 to Alpha-2 adrenergic receptor in porcine alpha2-clone.

For test [2], the target named is T2, Alpha-2 adrenergic receptor (Mus musculus, UniProt P30545+Q01338+Q01337).
T2 sequence (P30545 whole entry): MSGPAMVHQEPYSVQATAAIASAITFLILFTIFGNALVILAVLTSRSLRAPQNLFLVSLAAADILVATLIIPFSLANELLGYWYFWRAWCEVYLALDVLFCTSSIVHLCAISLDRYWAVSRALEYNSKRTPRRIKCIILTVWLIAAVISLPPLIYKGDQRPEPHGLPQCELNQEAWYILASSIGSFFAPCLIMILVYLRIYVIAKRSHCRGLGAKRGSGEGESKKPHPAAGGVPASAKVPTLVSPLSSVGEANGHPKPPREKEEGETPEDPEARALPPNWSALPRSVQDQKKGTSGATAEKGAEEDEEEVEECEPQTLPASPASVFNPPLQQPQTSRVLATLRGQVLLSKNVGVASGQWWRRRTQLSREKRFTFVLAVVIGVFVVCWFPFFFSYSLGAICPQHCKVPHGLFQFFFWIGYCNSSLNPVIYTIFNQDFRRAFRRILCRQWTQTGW
T2 sequence (Q01338 whole entry): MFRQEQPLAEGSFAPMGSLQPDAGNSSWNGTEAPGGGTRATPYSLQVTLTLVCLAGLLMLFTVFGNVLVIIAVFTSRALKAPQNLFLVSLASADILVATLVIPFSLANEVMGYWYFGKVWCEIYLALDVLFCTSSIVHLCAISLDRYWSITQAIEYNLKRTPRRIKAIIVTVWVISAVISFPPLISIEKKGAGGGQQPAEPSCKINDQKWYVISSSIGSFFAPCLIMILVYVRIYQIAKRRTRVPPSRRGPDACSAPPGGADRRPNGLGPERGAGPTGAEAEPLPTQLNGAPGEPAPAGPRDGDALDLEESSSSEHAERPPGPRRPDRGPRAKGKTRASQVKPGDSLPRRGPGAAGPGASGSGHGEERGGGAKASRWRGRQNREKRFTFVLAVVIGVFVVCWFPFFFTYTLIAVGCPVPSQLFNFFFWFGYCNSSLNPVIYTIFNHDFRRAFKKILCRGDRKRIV
T2 sequence (Q01337 whole entry): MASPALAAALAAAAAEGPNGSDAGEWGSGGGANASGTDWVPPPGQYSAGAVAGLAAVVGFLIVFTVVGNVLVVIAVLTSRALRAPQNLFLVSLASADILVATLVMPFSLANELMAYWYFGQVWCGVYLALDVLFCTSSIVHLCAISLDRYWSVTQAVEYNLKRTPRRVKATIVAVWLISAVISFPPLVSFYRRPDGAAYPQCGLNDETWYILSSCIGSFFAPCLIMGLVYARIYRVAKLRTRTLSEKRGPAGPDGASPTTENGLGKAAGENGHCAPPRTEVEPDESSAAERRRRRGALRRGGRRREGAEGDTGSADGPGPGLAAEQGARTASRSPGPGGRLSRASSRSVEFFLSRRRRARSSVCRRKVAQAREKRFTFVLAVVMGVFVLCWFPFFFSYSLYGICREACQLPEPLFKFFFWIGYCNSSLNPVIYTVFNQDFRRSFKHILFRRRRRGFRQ
Put plainly: Compound was evaluated for inhibition of binding of [3H]-MK-91 to Alpha-2 adrenergic receptor in mouse NG-108 cells. The test is classed as cell-based.

The target in test [3] is T2, Alpha-2 adrenergic receptor. Put plainly: Compound was evaluated for inhibition of binding of [3H]MK-91 to Alpha-2 adrenergic receptor in mouse Malpha2-4H. In kind it is protein assay.
Test [4] concerns the target T3, Alpha-2A adrenergic receptor (Bos taurus, UniProt Q28838).
T3 sequence (Q28838 whole entry): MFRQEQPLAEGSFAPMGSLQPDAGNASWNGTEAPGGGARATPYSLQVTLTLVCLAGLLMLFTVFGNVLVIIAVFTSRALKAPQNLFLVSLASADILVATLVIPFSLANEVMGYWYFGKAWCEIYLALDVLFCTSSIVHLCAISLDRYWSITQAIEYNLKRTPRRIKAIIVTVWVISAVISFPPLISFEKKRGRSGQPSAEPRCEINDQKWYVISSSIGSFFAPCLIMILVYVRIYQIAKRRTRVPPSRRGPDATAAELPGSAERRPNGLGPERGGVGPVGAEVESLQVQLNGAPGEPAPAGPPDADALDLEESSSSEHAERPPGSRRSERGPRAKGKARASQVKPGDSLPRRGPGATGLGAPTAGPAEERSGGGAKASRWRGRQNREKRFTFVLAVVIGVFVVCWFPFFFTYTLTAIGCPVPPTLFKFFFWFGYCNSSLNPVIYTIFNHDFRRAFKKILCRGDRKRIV
Put plainly: Compound was evaluated for inhibition of binding of [3H]MK-91 to Alpha-2 adrenergic receptor in bovine pineal.

The target in test [5] is T2, Alpha-2 adrenergic receptor. As to the kind of experiment: Compound was evaluated for inhibition of binding of [3H]MK-91 to Alpha-2 adrenergic receptor in mouse Malpha2-10H clone. The test is classed as protein assay.

As for `Cc1cc(C(C)(C)C)c(O)c(C)c1CC1=NCCN1` [OXYMETAZOLINE], the Ki in test [1] is 21 nM; in test [2] it was 132 nM; in test [3], 109 nM; in test [4] it was 1.5 nM; in test [5], 33 nM.

The Ki is a dissociation constant, usually derived from enzyme kinetics or from competition with a known ligand. Low readings indicate higher affinity, high ones lower affinity.
